Source: PubChem BioAssay AID270 (DTP/NCI, 2004)
Where “and” joins values, the source holds several entries; their conditions need not be identical. Equal values may be shown once. Inconclusive results are not listed. *1 amine or outer side, *2 acyl side, *3 side chain or, on linkers, in order; H or OH if unused. Where a SMILES comes first, the peptide text is derived from it. Bridges are numbered along the chain shown (N, C = ends). Roman numbers before positions name the chains, in order. [ ]: non-standard residue; d: D form. Actinocin(1to9) = Cc1c2oc3c(C)ccc(C(=O)[*:2])c3nc-2c(C(=O)[*:1])c(N)c1=O; NMeV = CN[CH](C(=O)O)C(C)C; Sar = CNCC(=O)O

System: BDF1 mice, s.c. Lewis lung carcinoma, T/C %
Assay: NCI In Vivo Anticancer Drug Screen. Data for tumor model Lewis Lung Carcinoma (subcutaneous) in B6D2F1 (BDF1) mice
In short: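 Transplanted tumors grown in mice; compound vs vehicle dosing; endpoint survival or tumor size; ratio T/C.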

In the case of O=NN(CCCl)C(=O)NC1CCC(C(=O)O)CC1 (stereo unspecified), the T/C (endpoint: median survival time, dose: 3.0 mg/kg/injection, schedule: Q01DX001 (ip), vehicle: saline with Tween-80, higher = longer survival) is reported as 97 % of control and 117 % of control, the T/C (endpoint: median survival time, dose: 5.0 mg/kg/injection, schedule: Q01DX001 (ip), vehicle: saline with Tween-80, higher = longer survival) is reported as 116 % of control and the T/C (endpoint: median survival time, dose: 7.0 mg/kg/injection, schedule: Q01DX001 (ip), vehicle: saline with Tween-80, higher = longer survival) is reported as 110 % of control. The T/C (endpoint: median survival time, dose: 8.0 mg/kg/injection, schedule: Q01DX001 (ip), vehicle: saline with Tween-80, higher = longer survival) was 124 % of control, the T/C (endpoint: median survival time, dose: 11.0 mg/kg/injection, schedule: Q01DX001 (ip), vehicle: saline with Tween-80, higher = longer survival) was 113 % of control and the T/C (endpoint: median survival time, dose: 12.0 mg/kg/injection, schedule: Q01DX001 (ip), vehicle: saline with Tween-80, higher = longer survival) was 121 % of control. The T/C (endpoint: median survival time, dose: 13.0 mg/kg/injection, schedule: Q01DX001 (ip), vehicle: saline with Tween-80, higher = longer survival) was 111 % of control and 288 % of control and 180 % of control, the T/C (endpoint: median survival time, dose: 17.0 mg/kg/injection, schedule: Q01DX001 (ip), vehicle: saline with Tween-80, higher = longer survival) was 121 % of control and the T/C (endpoint: median survival time, dose: 20.0 mg/kg/injection, schedule: Q01DX001 (ip), vehicle: saline with Tween-80, higher = longer survival) was 206 % of control [middle of 5 runs]. The T/C (endpoint: median survival time, dose: 26.0 mg/kg/injection, schedule: Q01DX001 (ip), vehicle: saline with Tween-80, higher = longer survival) was 109 % of control, the T/C (endpoint: median survival time, dose: 27.0 mg/kg/injection, schedule: Q01DX001 (ip), vehicle: saline with Tween-80, higher = longer survival) was 196 % of control and the T/C (endpoint: median survival time, dose: 30.0 mg/kg/injection, schedule: Q01DX001 (ip), vehicle: saline with Tween-80, higher = longer survival) was 228 % of control and 288 % of control and 219 % of control.
With Cc1ccc(N2CCN(CCCN3CCN(c4ccc(Cl)cc4)CC3)CC2)cc1 the T/C (endpoint: mean tumor weight, dose: 12.5 mg/kg/injection, schedule: Q01DX011 (ip), vehicle: other, higher = larger tumour) was 66 % of control, the T/C (endpoint: mean tumor weight, dose: 25.0 mg/kg/injection, schedule: Q01DX011 (ip), vehicle: other, higher = larger tumour) was 108 % of control and the T/C (endpoint: mean tumor weight, dose: 50.0 mg/kg/injection, schedule: Q01DX011 (ip), vehicle: other, higher = larger tumour) was 70 % of control. The T/C (endpoint: mean tumor weight, dose: 100.0 mg/kg/injection, schedule: Q01DX011 (ip), vehicle: other, higher = larger tumour) was 50 % of control.
NC(=S)c1cn(C2OC(CO)C(O)C2O)c2ncnc(N)c12 (stereo unspecified) was tested, and the T/C (endpoint: median survival time, dose: 0.31 mg/kg/injection, schedule: Q01DX009 (ip), vehicle: saline with Tween-80, higher = longer survival) was 111 % of control, the T/C (endpoint: median survival time, dose: 0.62 mg/kg/injection, schedule: Q01DX009 (ip), vehicle: saline with Tween-80, higher = longer survival) was 88 % of control and the T/C (endpoint: median survival time, dose: 2.5 mg/kg/injection, schedule: Q01DX009 (ip), vehicle: saline with Tween-80, higher = longer survival) was 94 % of control and 101 % of control. For the same molecule, the T/C (endpoint: median survival time, dose: 5.0 mg/kg/injection, schedule: Q01DX009 (ip), vehicle: saline with Tween-80, higher = longer survival) was 101 % of control.
For CCC(C)C1NC(=O)C(NC(=O)c2c3nc4c(C(=O)NC5C(=O)NC(C(C)C)C(=O)N6CCCC6C(=O)N(C)CC(=O)N(C)C(C(C)C)C(=O)OC5C)ccc(C)c4oc-3c(C)c(=O)c2N)C(C)OC(=O)C(C(C)C)N(C)C(=O)CN(C)C(=O)C2CCCN2C1=O (stereo unspecified) (I: TIP[Sar][NMeV] / II: TVP[Sar][NMeV]; ester I:1-I:C, II:1-II:C; linker I:N-II:N via Actinocin(1to9); configuration not given here), the T/C (endpoint: median survival time, dose: 12.5 micrograms/kg/injection, schedule: Q01DX009 (ip), vehicle: water, higher = longer survival) was 111 % of control, the T/C (endpoint: median survival time, dose: 25.0 micrograms/kg/injection, schedule: Q01DX009 (ip), vehicle: water, higher = longer survival) was 112 % of control and the T/C (endpoint: median survival time, dose: 50.0 micrograms/kg/injection, schedule: Q01DX009 (ip), vehicle: water, higher = longer survival) was 112 % of control. The T/C (endpoint: median survival time, dose: 75.0 micrograms/kg/injection, schedule: Q04DX003 (ip), vehicle: water, higher = longer survival) was 100 % of control, the T/C (endpoint: median survival time, dose: 150.0 micrograms/kg/injection, schedule: Q04DX003 (ip), vehicle: water, higher = longer survival) was 108 % of control and the T/C (endpoint: median survival time, dose: 300.0 micrograms/kg/injection, schedule: Q04DX003 (ip), vehicle: water, higher = longer survival) was 154 % of control.
With Cc1ccc(NC(=O)c2ccccc2)cc1[As]=[As]c1cc(NC(=O)c2ccccc2)ccc1C (stereo unspecified) the T/C (endpoint: median survival time, dose: 0.63 mg/kg/injection, schedule: Q01DX009 (ip), vehicle: Klucel (hydroxypropylcellulose) (HPC), higher = longer survival) was 100 % of control and the T/C (endpoint: median survival time, dose: 1.25 mg/kg/injection, schedule: Q01DX009 (ip), vehicle: Klucel (hydroxypropylcellulose) (HPC), higher = longer survival) was 100 % of control.
For O=C1CN=C(c2ccc[nH]2)c2cc(Cl)ccc2N1, the T/C (endpoint: mean tumor weight, dose: 40.0 mg/kg/injection, schedule: Q01DX011 (ip), vehicle: other, higher = larger tumour) was 112 % of control and the T/C (endpoint: mean tumor weight, dose: 120.0 mg/kg/injection, schedule: Q01DX011 (ip), vehicle: other, higher = larger tumour) was 73 % of control and 90 % of control.
In the case of Nc1ccc2nc3ccc(N)cc3[n+](-c3ccccc3)c2c1, the T/C (endpoint: median survival time, dose: 2.0 mg/kg/injection, schedule: Q01DX009 (ip), vehicle: saline, higher = longer survival) is reported as 88 % of control.
